According to PubChem BioAssay (NCI):
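At the GI50, growth is halved. At the TGI there is no net growth.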

Columns and labels:
Test in all cases: DTP human tumour cell line panel, 384-well format
SF-268 CNS = system: SF-268 CNS
K-562 leukemia = system: K-562 leukemia
HOP-92 NSCLC = system: HOP-92 NSCLC
HCC-2998 colon = system: HCC-2998 colon
KM12 colon = system: KM12 colon
A549 NSCLC = system: A549 NSCLC
SK-OV-3 ovarian = system: SK-OV-3 ovarian
MDA-MB-435 melanoma = system: MDA-MB-435 melanoma
NCI-H226 lung = system: NCI-H226 lung
CAKI-1 renal = system: CAKI-1 renal
LOX IMVI melanoma = system: LOX IMVI melanoma
OVCAR-8 ovarian = system: OVCAR-8 ovarian
RXF 393 renal = system: RXF 393 renal
CCRF-CEM leukemia = system: CCRF-CEM leukemia
U251 glioblastoma = system: U251 glioblastoma
MALME-3M melanoma = system: MALME-3M melanoma
EKVX NSCLC = system: EKVX NSCLC
A498 renal = system: A498 renal
HT29 colon = system: HT29 colon
HS 578T breast = system: HS 578T breast
BT-549 breast = system: BT-549 breast
HOP-62 NSCLC = system: HOP-62 NSCLC
NCI-H522 lung = system: NCI-H522 lung
DU-145 prostate = system: DU-145 prostate
PC-3 prostate = system: PC-3 prostate
SW-620 colon = system: SW-620 colon
HCT-15 colon = system: HCT-15 colon
COLO 205 colon = system: COLO 205 colon

`CCOC(=O)CCC(NC(=O)C(Cc1ccc(N(CCCl)CCCl)cc1)NC=O)C(=O)OCC` (stereo not given) showed a GI50 (SF-268 CNS) of 0.737 µM, a TGI (SF-268 CNS) of 2.28 µM and a GI50 (K-562 leukemia) of 13.1 µM. The TGI (K-562 leukemia) was 27.8 µM, the GI50 (HOP-92 NSCLC) was 1.02 µM and the TGI (HOP-92 NSCLC) was 3.49 µM. For the same compound, the GI50 (HCC-2998 colon) was 0.712 µM, the TGI (HCC-2998 colon) was 13.9 µM and the GI50 (KM12 colon) was 15 µM. For the same compound, the TGI (KM12 colon) was 36.3 µM, the GI50 (A549 NSCLC) was 5.77 µM and the TGI (A549 NSCLC) was 27.5 µM. For the same compound, the GI50 (SK-OV-3 ovarian) was 3.27 µM, the TGI (SK-OV-3 ovarian) was 12.4 µM and the GI50 (MDA-MB-435 melanoma) was 3.19 µM. It also gave a TGI (MDA-MB-435 melanoma) of 8.84 µM, a GI50 (NCI-H226 lung) of 1.71 µM and a TGI (NCI-H226 lung) of 10.9 µM. The GI50 (CAKI-1 renal) was 0.463 µM, the TGI (CAKI-1 renal) was 2.14 µM and the GI50 (LOX IMVI melanoma) was 2.69 µM. For the same compound, the TGI (LOX IMVI melanoma) was 13.2 µM, the GI50 (OVCAR-8 ovarian) was 3.24 µM and the TGI (OVCAR-8 ovarian) was 17 µM. For the same compound, the GI50 (RXF 393 renal) was 1.76 µM, the TGI (RXF 393 renal) was 3.19 µM and the GI50 (CCRF-CEM leukemia) was 0.131 µM. For the same compound, the TGI (CCRF-CEM leukemia) was 0.281 µM, the GI50 (U251 glioblastoma) was 1.82 µM and the TGI (U251 glioblastoma) was 6.04 µM. It also gave a GI50 (MALME-3M melanoma) of 1.03 µM, a TGI (MALME-3M melanoma) of 2.22 µM and a GI50 (EKVX NSCLC) of 18.9 µM. For the same compound, the TGI (EKVX NSCLC) was 41.6 µM, the GI50 (A498 renal) was 5.47 µM and the TGI (A498 renal) was 26.6 µM. For the same compound, the GI50 (HT29 colon) was 3.71 µM, the TGI (HT29 colon) was 16.6 µM and the GI50 (HS 578T breast) was 2.58 µM. For the same compound, the TGI (HS 578T breast) was 14.3 µM, the GI50 (BT-549 breast) was 12.1 µM and the TGI (BT-549 breast) was 27.5 µM. For the same compound, the GI50 (HOP-62 NSCLC) was 1.72 µM, the TGI (HOP-62 NSCLC) was 4.13 µM and the GI50 (NCI-H522 lung) was 0.729 µM. For the same compound, the TGI (NCI-H522 lung) was 2.11 µM, the GI50 (DU-145 prostate) was 2.42 µM and the TGI (DU-145 prostate) was 5.42 µM. For the same compound, the GI50 (PC-3 prostate) was 5.25 µM, the TGI (PC-3 prostate) was 19.1 µM and the GI50 (SW-620 colon) was 2.86 µM. For the same compound, the TGI (SW-620 colon) was 20.6 µM, the GI50 (HCT-15 colon) was 4.54 µM and the TGI (HCT-15 colon) was 16.8 µM. For the same compound, the GI50 (COLO 205 colon) was 0.602 µM.
